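Results reflect a 48-hour exposure of cells in 96-well plates to compound at five concentrations. The concentration for 50% growth inhibition is given as GI50.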 The source made the active and inactive calls. No stated cut-off is given here; in the data, active = GI50 up to about 1.1 µM and inactive = higher.
Columns and labels:
Assay in all cases: inhibition of tumour cell growth, NCI panel, 48 h
BT-549 = tested on: BT-549
CCRF-CEM = tested on: CCRF-CEM
COLO 205 = tested on: COLO 205
EKVX = tested on: EKVX
HOP-62 = tested on: HOP-62
HOP-92 = tested on: HOP-92
K562 = tested on: K562
MDA-N = tested on: MDA-N
Malme-3M = tested on: Malme-3M
NCI-H226 = tested on: NCI-H226
NCI-H460 = tested on: NCI-H460
NCI-H522 = tested on: NCI-H522
OVCAR-3 = tested on: OVCAR-3
OVCAR-5 = tested on: OVCAR-5
RPMI-8226 = tested on: RPMI-8226
SK-MEL-28 = tested on: SK-MEL-28
SK-MEL-2 = tested on: SK-MEL-2
SK-OV-3 = tested on: SK-OV-3
SR = tested on: SR
UACC-62 = tested on: UACC-62

SMILES | GI50 (BT-549) | GI50 (CCRF-CEM) | GI50 (COLO 205) | GI50 (EKVX) | GI50 (HOP-62) | GI50 (HOP-92) | GI50 (K562) | GI50 (MDA-N) | GI50 (Malme-3M) | GI50 (NCI-H226) | GI50 (NCI-H460) | GI50 (NCI-H522) | GI50 (OVCAR-3) | GI50 (OVCAR-5) | GI50 (RPMI-8226) | GI50 (SK-MEL-28) | GI50 (SK-MEL-2) | GI50 (SK-OV-3) | GI50 (SR) | GI50 (UACC-62)
Cc1ccc(OCC2OC(n3cnc4nc(Cl)nc(Cl)c43)CC2Oc2ccc(C)cc2)cc1 (stereo not drawn) | 9.51 µM (inactive) | 2.99 µM (inactive) | 9.25 µM (inactive) | 11.2 µM (inactive) | 16.3 µM (inactive) | 2.69 µM (inactive) | 1.95 µM (inactive) | 3.74 µM (inactive) | 13.6 µM (inactive) | 12 µM (inactive) | 6.55 µM (inactive) | 1.84 µM (inactive) | 6.38 µM (inactive) | 17.2 µM (inactive) | 2.62 µM (inactive) | 3.65 µM (inactive) | 4.98 µM (inactive) | 30.3 µM (inactive) | 1.78 µM (inactive) | 6.04 µM (inactive)
O=c1[nH]cc(/N=C/c2cc(Cl)ccc2O)c(=O)[nH]1 | 4.84 µM (inactive) | 2.26 µM (inactive) | 25.3 µM (inactive) | 32.1 µM (inactive) | 20.6 µM (inactive) | 11.2 µM (inactive) | 7.26 µM (inactive) | 37.8 µM (inactive) | 25.1 µM (inactive) | 19.2 µM (inactive) | 48.8 µM (inactive) | 31.7 µM (inactive) | 17.5 µM (inactive) | 22.4 µM (inactive) | 5.93 µM (inactive) | 13.6 µM (inactive) | 19.1 µM (inactive) | 18.7 µM (inactive) | 1.85 µM (inactive) | 21.9 µM (inactive)
CC1=C(/C=C/C(C)=C/C=C/C(C)=C/C(=O)O)C(C)(C)CCC1 [TRETINOIN] | 37.3 µM (inactive) | 44.3 µM (inactive) | 49.3 µM (inactive) | > 100 µM (inactive) | 49.9 µM (inactive) | > 63.8 µM (inactive) | 39.4 µM (inactive) | 45.8 µM (inactive) | 46.3 µM (inactive) | 43.4 µM (inactive) | 48.8 µM (inactive) | 56.9 µM (inactive) | 46.6 µM (inactive) | > 68.5 µM (inactive) | 1.34 µM (inactive) | 53.8 µM (inactive) | 28.9 µM (inactive) | > 71.8 µM (inactive) | 47 µM (inactive) | > 64.3 µM (inactive)
C#CCNC(=O)NC(CCCCNC(=O)OCc1ccccc1)C(=O)OCc1ccccc1 (stereo not drawn) | > 100 µM (inactive) | 49.8 µM (inactive) | 21.7 µM (inactive) | > 100 µM (inactive) | > 100 µM (inactive) | 18.7 µM (inactive) | 53.6 µM (inactive) | 32.9 µM (inactive) | 24.2 µM (inactive) | 41.6 µM (inactive) | 93.5 µM (inactive) | 6.64 µM (inactive) | 62.2 µM (inactive) | > 100 µM (inactive) | 26.7 µM (inactive) | 17.7 µM (inactive) | 16.6 µM (inactive) | > 100 µM (inactive) | 34.8 µM (inactive) | 12.7 µM (inactive)
N#Cc1ccc(Nc2nc3[nH]cnc3c(=O)[nH]2)cc1 | > 100 µM (inactive) | > 100 µM (inactive) | > 100 µM (inactive) | > 100 µM (inactive) | > 100 µM (inactive) | > 100 µM (inactive) |  | > 100 µM (inactive) | > 100 µM (inactive) | > 100 µM (inactive) | > 100 µM (inactive) | > 100 µM (inactive) | > 100 µM (inactive) | > 100 µM (inactive) | > 100 µM (inactive) | > 100 µM (inactive) | > 100 µM (inactive) | > 100 µM (inactive) | > 100 µM (inactive) | > 100 µM (inactive)
CC(=O)Nc1ccc(S(=O)(=O)c2nnc(NC(C)=O)s2)cc1 | > 100 µM (inactive) | > 100 µM (inactive) | 0.215 µM (active) | > 100 µM (inactive) | > 100 µM (inactive) | > 100 µM (inactive) | > 100 µM (inactive) | > 100 µM (inactive) | > 100 µM (inactive) | > 100 µM (inactive) | > 100 µM (inactive) | > 100 µM (inactive) | > 100 µM (inactive) | > 100 µM (inactive) | > 100 µM (inactive) | > 100 µM (inactive) | > 100 µM (inactive) | > 100 µM (inactive) | > 100 µM (inactive) | > 100 µM (inactive)
Nc1ccn(C2CCC(CO)O2)c(=O)n1 (stereo not drawn) | > 1000 µM (inactive) | 46.5 µM (inactive) | > 100 µM (inactive) | > 100 µM (inactive) | > 100 µM (inactive) | > 100 µM (inactive) | > 100 µM (inactive) | > 1000 µM (inactive) | > 100 µM (inactive) | > 93.5 µM (inactive) | > 100 µM (inactive) | 656 µM (inactive) | > 100 µM (inactive) | > 100 µM (inactive) | > 100 µM (inactive) | > 100 µM (inactive) | > 100 µM (inactive) | > 100 µM (inactive) | 367 µM (inactive) | > 100 µM (inactive)
COc1cc(/C=C2\CC(C)C/C(=C\c3ccc(O)c(OC)c3)C2=O)ccc1O (stereo not drawn) | 3.23 µM (inactive) | 2.56 µM (inactive) | 10.9 µM (inactive) | 13.8 µM (inactive) | 3.46 µM (inactive) | 2.92 µM (inactive) | 4.48 µM (inactive) | 2.54 µM (inactive) | 1.9 µM (inactive) | 4.85 µM (inactive) | 2.88 µM (inactive) | 2.11 µM (inactive) | 2.8 µM (inactive) | 19.6 µM (inactive) | 3.58 µM (inactive) | 3.42 µM (inactive) | 4.53 µM (inactive) | 3.49 µM (inactive) | 2.86 µM (inactive) | 1.85 µM (inactive)
CC(C)C[C@H](NC(=O)[C@H](Cc1ccc(F)cc1)NC(=O)c1ccccn1)B(O)O | < 0.01 µM (active) | < 0.01 µM (active) | < 0.01 µM (active) | < 0.01 µM (active) | < 0.01 µM (active) | < 0.01 µM (active) | < 0.01 µM (active) | < 0.01 µM (active) | < 0.01 µM (active) | < 0.01 µM (active) | < 0.01 µM (active) | < 0.01 µM (active) | < 0.01 µM (active) | < 0.01 µM (active) | < 0.01 µM (active) | < 0.01 µM (active) | < 0.01 µM (active) | < 0.0148 µM (active) | < 0.01 µM (active) | < 0.01 µM (active)
Cc1ncc(CO)c(/C=N/CCCCCC/N=C/c2c(CO)cnc(C)c2[O-])c1[O-].[Mg+2] | > 100 µM (inactive) | 36.2 µM (inactive) | > 100 µM (inactive) | > 100 µM (inactive) | > 100 µM (inactive) | > 44.6 µM (inactive) | > 100 µM (inactive) | > 100 µM (inactive) | > 100 µM (inactive) | > 100 µM (inactive) | > 100 µM (inactive) | > 100 µM (inactive) | > 100 µM (inactive) | > 100 µM (inactive) | > 100 µM (inactive) | > 100 µM (inactive) | > 100 µM (inactive) | > 100 µM (inactive) | 92.7 µM (inactive) | > 100 µM (inactive)
N/N=c1\[nH]c2ccccc2o1 | > 100 µM (inactive) | 31.7 µM (inactive) | > 100 µM (inactive) | > 100 µM (inactive) |  | > 100 µM (inactive) | 89.7 µM (inactive) | > 100 µM (inactive) | > 100 µM (inactive) | > 100 µM (inactive) | > 100 µM (inactive) | 57.1 µM (inactive) |  | > 100 µM (inactive) | 67.6 µM (inactive) | > 100 µM (inactive) | > 100 µM (inactive) |  | 52 µM (inactive) | > 100 µM (inactive)
CCOC(=O)C(=O)NNc1nc2c(s1)C(=O)c1ccccc1C2=O | 10.9 µM (inactive) | 2.34 µM (inactive) | 12.4 µM (inactive) | 7.46 µM (inactive) | 10.8 µM (inactive) | 10.5 µM (inactive) | 2.3 µM (inactive) | 1.8 µM (inactive) | 1.95 µM (inactive) | 15.7 µM (inactive) | 10.7 µM (inactive) | 4.49 µM (inactive) | 1.88 µM (inactive) | 9.35 µM (inactive) | 2.65 µM (inactive) | 3.06 µM (inactive) | 3.95 µM (inactive) | 20 µM (inactive) | 0.465 µM (active) | 4.94 µM (inactive)
CCC(=O)Nc1ccc(N2C(=O)C(Cl)C2c2ccc(SC)cc2)cc1 (stereo not drawn) | > 100 µM (inactive) | 26.9 µM (inactive) | 40.4 µM (inactive) | 52.7 µM (inactive) | 61.7 µM (inactive) | > 100 µM (inactive) | 72.9 µM (inactive) | > 100 µM (inactive) | > 100 µM (inactive) | 31.5 µM (inactive) | 32.8 µM (inactive) | 41 µM (inactive) | 81.5 µM (inactive) | 97.5 µM (inactive) | 32.5 µM (inactive) | > 100 µM (inactive) | 65 µM (inactive) | > 100 µM (inactive) | 40.6 µM (inactive) | > 100 µM (inactive)
CC(C)(NO)/C(=N\O)c1ccccc1 | > 10 µM (inactive) | > 10 µM (inactive) | > 10 µM (inactive) | > 10 µM (inactive) | > 10 µM (inactive) | > 10 µM (inactive) | > 10 µM (inactive) | > 10 µM (inactive) | > 10 µM (inactive) | > 10 µM (inactive) | > 10 µM (inactive) | > 10 µM (inactive) | > 10 µM (inactive) | > 10 µM (inactive) | > 10 µM (inactive) |  | > 10 µM (inactive) |  | > 10 µM (inactive) | 

From ChEMBL document CHEMBL1201862, “PubChem BioAssay data set” (2004)
